In this test the test system is CRABP-2 expression of fibroblasts. As to the kind of experiment: CRABP-2 protein expression in fibroblasts (Western blot, densitometric scanning). The test is classed as cell-based, Human. As to conditions: for CRABP-2 levels: 4 h anise pre-treatment, 48 h incubation, +/− SD of triplicates; for As % of control: control as 100%. How it is done:
Dried […] seeds (Pimpinella anisum) was purchased from local markets and powdered in a dry grinder. The alcoholic extract of anise seed was prepared by stirring 1 gram of the dry anise seed powder in 10 ml of ethanol from the list of solvents given below for 4 to 24 hrs at room temperature. The extracts were clarified by filtration and centrifugation, to obtain a 10% extract of anise seed in the particular solvent. Human adult fibroblasts obtained from sun-protected inner arm of 25-30 year […] volunteer were used in this. Cells were grown in 1:1 DMEM/Hams F12 media containing 10% FBS, maintained at 37C in a 5% CO2 atmosphere under normal atmospheric oxygen tension. Third passage adult fibroblasts were grown in DMEM media with 10% FBS in 12-well plates at a seeding density of 40,000 cells/ml/well. The cells at 80% confluence were rinsed in serum free and phenol red free (PRF) DMEM media twice. Pre-treatment with anise seed extract for 4 hours was conducted and then dosed with retinoids and was incubated for 48 hours. After the incubation, the wells were washed twice with 1×PBS and the cell monolayer was harvested in 100 μl cell lysis buffer (contains 1×PBS, 1% TritonX, 0.5% sodium deoxycholate, 0.1% SDS containing protease inhibitor (10 mg/ml PMSF in isopropanol, 10 μl/ml). The suspension was spun at 14000 rpm for 10 minutes, the supernatant collected and an aliquot of this supernatant was used for protein quantification. Protein concentration was determined using Pierce protein kit. The remainder of 100 μl supernatant (cell lysate) was denatured in a mixture of 40 μl sample buffer (NOVEX) and 0.5% Beta mercaptoethanol (BME) and by boiling the sample for 5 minutes. Equal amount of protein was then loaded onto 16% Tris-glycine gels for protein analysis by SDS page and Western Immuno-blotting for CRABP-2 protein expression. To measure the levels of CRABP-2 in the fibroblasts prepared as described above, the cell supernatant was re-suspended in 4× sample buffer and 0.5% BME, boiled for 5 minutes and used for western blotting. Equal amounts of protein were loaded onto 16% Tris-glycine gels for CRABP-2 protein analysis by SDS page and Western Immuno-blotting. The gels were transferred to nitrocellulose blots and Western Blotting was carried out using monoclonal antibodies to CRABP-2 according to standard procedures. The CRABP-2 protein band was visualized in the Western Blots using the chemiluminescence system obtained from Santa Cruz Biotechnology (SantaCruz, Calif.). The bands in the film were quantitated by densitometric scanning, the data from triplicate samples were calculated as % of control and expressed in the following tables as % increase over control (with control as 100%) +/−SD of triplicates.
(A western blot detects proteins with antibodies after separation by electrophoresis.)

The mark [1] stands for this setting: Example 1: 100 nM retinoids and 0.1 μl of a 10% anise seed extract.
The mark [2] stands for this setting: Example 2: 100 nM retinoids and 1.0 μl of a 10% anise seed extract.
Where [3] appears, read: Example 3: 500 nM retinoids and 0.1 μl of a 10% anise seed extract.
Where [4] appears, read: Example 4: 500 nM retinoids and 1.0 μl of a 10% anise seed extract.

Data on 4 compounds can be found in patent US6395286B1, “Cosmetic compositions containing anise extract and retinoids” (Unilever Home & Personal Care USA, division of Conopco, Inc., priority 1999, dated 2002).

Turning to `CC1=C(/C=C/C(C)=C/C=C/C(C)=C/CO)C(C)(C)CCC1` [Retinol], the CRABP-2 levels runs as follows: under setting [1], 1.36 +/− 0.17; under setting [2], 1.36 +/− 0.17; under setting [3], 0.66 +/− 0.19; under setting [4], 0.66 +/− 0.19. Besides, the “As % of control” value is 317 +/− 39 % of control under setting [1], 317 +/− 39 % of control under setting [2], 154 +/− 44 % of control under setting [3] and 154 +/− 44 % of control under setting [4].
Turning to `CCCCCCCCCCCCCCCC(=O)OC/C=C(C)/C=C/C=C(C)/C=C/C1=C(C)CCCC1(C)C` [Retinyl Palmitate], the CRABP-2 levels by setting is: under setting [1], 1.12 +/− 0.15; under setting [2], 1.12 +/− 0.15; under setting [3], 0.83 +/− 0.5; under setting [4], 0.83 +/− 0.5. In addition, the “As % of control” value runs as follows: under setting [1], 262 +/− 37 % of control; under setting [2], 262 +/− 37 % of control; under setting [3], 193 % of control; under setting [4], 193 % of control.
`CC(=O)OC/C=C(C)/C=C/C=C(C)/C=C/C1=C(C)CCCC1(C)C` [Retinyl acetate]: the CRABP-2 levels is listed as 2.38 +/− 0.81 under setting [1], 2.38 +/− 0.81 under setting [2], 1.02 +/− 0.56 under setting [3] and 1.02 +/− 0.56 under setting [4]. Also, the “As % of control” value runs as follows: under setting [1], 553 % of control; under setting [2], 553 % of control; under setting [3], 237 % of control; under setting [4], 237 % of control.
Turning to `CCCCC/C=C\C/C=C\CCCCCCCC(=O)OC/C=C(C)/C=C/C=C(C)/C=C/C1=C(C)CCCC1(C)C` [Retinyl linoleate], the CRABP-2 levels is, setting by setting: under setting [1], 1.23 +/− 0.28; under setting [2], 1.23 +/− 0.28; under setting [3], 0.99 +/− 0.13; under setting [4], 0.99 +/− 0.13. The “As % of control” value under setting [1] is given as 286 +/− 65 % of control, the “As % of control” value under setting [2] was 286 +/− 65 % of control, the “As % of control” value under setting [3] is 231 +/− 30 % of control and the “As % of control” value under setting [4] is 231 +/− 30 % of control.
